Test results reported in US12649737B2, “Compounds and uses thereof” (Foghorn Therapeutics Inc., priority 2020, dated 2026).

Assays:
BRM = target: T1, BRM (Homo sapiens, UniProt P51531); test: ATPase catalytic activity assay of BRM (ADP-Glo); format: biochemical; conditions: 30 nM BRM, 400 μM ATP, 20 nM salmon sperm DNA, 1 hour at room temperature
T1 construct: made in house; host or cells: High Five insect cells
Description: (§1) Example 38. Assay for ATPase Catalytic Activity of BRM and BRG-1
(§2) The ADP-Glo™ kinase assay is performed in two steps once the reaction is complete.

BRG-1 = target: T2, BRG-1 (Homo sapiens, UniProt P51532); test: ATPase catalytic activity assay of BRG-1 (ADP-Glo); format: biochemical; conditions: 30 nM BRG-1, 400 μM ATP, 20 nM salmon sperm DNA, 1 hour at room temperature; read-out: BRG1 ATPase: IC50
T2 construct: made in house; host or cells: High Five insect cells
T2 sequence (P51532 whole entry): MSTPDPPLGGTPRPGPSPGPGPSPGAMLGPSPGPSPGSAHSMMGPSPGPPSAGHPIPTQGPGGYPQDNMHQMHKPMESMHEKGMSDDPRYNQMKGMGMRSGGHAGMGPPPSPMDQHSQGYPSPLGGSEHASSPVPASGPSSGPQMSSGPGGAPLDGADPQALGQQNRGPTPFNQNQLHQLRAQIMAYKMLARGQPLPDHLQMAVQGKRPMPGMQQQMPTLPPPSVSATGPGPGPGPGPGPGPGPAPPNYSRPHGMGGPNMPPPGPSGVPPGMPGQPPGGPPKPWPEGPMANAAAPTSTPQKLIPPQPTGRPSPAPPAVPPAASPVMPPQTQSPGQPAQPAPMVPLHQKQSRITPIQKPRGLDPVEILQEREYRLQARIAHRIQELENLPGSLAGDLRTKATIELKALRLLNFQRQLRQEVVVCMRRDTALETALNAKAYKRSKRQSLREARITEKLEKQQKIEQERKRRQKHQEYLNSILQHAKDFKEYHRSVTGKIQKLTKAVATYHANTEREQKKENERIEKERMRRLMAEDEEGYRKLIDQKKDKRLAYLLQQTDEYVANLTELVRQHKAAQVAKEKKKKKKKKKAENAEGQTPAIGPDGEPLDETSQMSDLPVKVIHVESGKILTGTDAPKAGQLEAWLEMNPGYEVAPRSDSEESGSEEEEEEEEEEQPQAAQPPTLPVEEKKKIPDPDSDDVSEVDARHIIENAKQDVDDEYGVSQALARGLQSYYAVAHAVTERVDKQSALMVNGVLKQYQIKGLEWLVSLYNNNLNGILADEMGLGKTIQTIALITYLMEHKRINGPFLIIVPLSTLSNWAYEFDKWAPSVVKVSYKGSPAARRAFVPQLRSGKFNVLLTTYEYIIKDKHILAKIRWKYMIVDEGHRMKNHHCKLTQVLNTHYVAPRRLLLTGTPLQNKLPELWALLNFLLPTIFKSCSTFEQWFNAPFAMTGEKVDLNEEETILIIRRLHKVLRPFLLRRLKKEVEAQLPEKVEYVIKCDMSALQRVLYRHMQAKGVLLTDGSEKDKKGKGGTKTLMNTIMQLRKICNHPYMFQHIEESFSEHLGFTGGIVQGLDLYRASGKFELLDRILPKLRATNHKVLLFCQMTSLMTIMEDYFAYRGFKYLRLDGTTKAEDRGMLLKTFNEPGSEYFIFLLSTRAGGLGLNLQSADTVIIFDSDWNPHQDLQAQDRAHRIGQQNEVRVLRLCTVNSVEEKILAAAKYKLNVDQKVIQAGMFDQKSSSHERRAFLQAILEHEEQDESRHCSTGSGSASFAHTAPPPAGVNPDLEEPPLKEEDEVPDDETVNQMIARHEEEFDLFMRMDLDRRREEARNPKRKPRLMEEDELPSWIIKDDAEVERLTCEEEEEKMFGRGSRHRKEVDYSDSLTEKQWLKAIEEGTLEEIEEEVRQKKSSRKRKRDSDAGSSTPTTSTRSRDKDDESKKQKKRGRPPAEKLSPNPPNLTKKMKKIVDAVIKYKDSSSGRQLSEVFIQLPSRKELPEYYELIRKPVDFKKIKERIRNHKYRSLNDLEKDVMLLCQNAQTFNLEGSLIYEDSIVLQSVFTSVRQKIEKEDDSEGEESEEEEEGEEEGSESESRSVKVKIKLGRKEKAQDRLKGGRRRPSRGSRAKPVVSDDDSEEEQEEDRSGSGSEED
Description: as §1, §2

T1 sequence (P51531 whole entry): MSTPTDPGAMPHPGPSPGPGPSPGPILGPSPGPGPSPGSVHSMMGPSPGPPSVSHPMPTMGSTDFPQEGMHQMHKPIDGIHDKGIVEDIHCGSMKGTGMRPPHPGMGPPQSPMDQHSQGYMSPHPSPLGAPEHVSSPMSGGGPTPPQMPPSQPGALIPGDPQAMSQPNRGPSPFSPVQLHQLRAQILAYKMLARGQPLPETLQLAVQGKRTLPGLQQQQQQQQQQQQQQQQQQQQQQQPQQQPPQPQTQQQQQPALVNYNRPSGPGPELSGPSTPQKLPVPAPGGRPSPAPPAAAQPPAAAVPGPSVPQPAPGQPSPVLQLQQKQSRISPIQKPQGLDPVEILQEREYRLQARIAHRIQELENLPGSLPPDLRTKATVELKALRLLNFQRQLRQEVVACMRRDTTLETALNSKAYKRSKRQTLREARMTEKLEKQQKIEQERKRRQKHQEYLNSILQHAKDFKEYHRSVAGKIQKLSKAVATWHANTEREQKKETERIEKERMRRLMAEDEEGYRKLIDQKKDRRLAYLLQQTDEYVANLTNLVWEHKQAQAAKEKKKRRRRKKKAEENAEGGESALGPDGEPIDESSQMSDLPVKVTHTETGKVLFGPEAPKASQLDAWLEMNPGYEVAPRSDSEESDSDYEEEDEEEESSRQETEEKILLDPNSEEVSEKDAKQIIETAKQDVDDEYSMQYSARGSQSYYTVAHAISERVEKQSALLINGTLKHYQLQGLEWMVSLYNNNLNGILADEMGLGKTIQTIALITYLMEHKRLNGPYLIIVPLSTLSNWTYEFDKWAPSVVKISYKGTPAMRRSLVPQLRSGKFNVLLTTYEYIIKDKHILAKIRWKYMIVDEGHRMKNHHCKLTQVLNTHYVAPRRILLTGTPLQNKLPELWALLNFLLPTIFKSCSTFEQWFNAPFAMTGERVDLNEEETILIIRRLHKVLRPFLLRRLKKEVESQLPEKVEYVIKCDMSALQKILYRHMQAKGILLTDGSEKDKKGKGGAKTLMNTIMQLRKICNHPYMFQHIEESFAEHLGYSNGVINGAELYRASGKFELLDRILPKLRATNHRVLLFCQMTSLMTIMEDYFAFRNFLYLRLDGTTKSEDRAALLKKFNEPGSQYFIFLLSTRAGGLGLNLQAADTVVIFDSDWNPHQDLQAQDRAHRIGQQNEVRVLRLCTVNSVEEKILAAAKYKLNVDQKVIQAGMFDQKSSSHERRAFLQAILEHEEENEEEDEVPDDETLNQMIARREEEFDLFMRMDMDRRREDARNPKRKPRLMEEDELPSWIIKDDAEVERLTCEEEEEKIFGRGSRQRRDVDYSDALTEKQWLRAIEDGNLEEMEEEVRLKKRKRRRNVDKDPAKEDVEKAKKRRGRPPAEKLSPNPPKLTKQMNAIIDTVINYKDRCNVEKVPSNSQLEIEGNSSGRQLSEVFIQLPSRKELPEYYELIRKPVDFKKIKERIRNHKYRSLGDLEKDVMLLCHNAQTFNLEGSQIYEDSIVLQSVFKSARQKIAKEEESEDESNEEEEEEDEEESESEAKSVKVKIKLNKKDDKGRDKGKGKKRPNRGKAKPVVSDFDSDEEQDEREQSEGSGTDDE

Row | Structure (SMILES) | IC50 (BRM) | IC50 (BRG-1)
1 | CS(=O)(=O)n1ccc(C(=O)NCc2cc3nc(-c4cccc(C#N)c4)ccc3cn2)c1 [Compound 66, N-((2-(3-cyanophenyl)-1,6-naphthyridin-7-yl)methyl)-1-(methylsulfonyl)-1H-pyrrole-3-carboxamide] | > 1 µM | > 1 µM
2 | COc1cccc(-c2ccc3nc(CNC(=O)c4ccn(C(C)(C)C)c4)[nH]c3c2)c1 [Compound 16] | 0.1 to 1 µM | 0.1 to 1 µM
3 | CS(=O)(=O)n1ccc(C(=O)NCc2nc3ccc(N4CCCC(C5CCC5)C4)nc3[nH]2)c1 (stereo not shown) [Compound 23] | 0.1 to 1 µM | 0.1 to 1 µM
4 | CS(=O)(=O)n1ccc(C(=O)NCc2nc3ccc(-c4cccc(N5CCC5)c4)cc3[nH]2)c1 [Compound 7] | 0.1 to 1 µM | 0.1 to 1 µM
5 | CS(=O)(=O)n1ccc(C(=O)NCc2nc3ccc(-c4cccc(OC(F)(F)F)c4)nc3[nH]2)c1 [Compound 29] | 0.1 to 1 µM | 0.1 to 1 µM
6 | CS(=O)(=O)n1ccc(C(=O)NCc2cc3nc(-c4ccccc4)ccc3cn2)c1 [Compound 61, 1-(methylsulfonyl)-N-((2-phenyl-1,6-naphthyridin-7-yl)methyl)-1H-pyrrole-3-carboxamide] | 0.1 to 1 µM | 0.1 to 1 µM
7 | COc1cccc(-c2ccc3cnc(CNC(=O)c4ccn(S(C)(=O)=O)c4)cc3n2)c1 [Compound 62] | 0.1 to 1 µM | 0.1 to 1 µM
8 | CC(C)(C)n1ccc(C(=O)NCc2nc3ccc(-c4ccc(-n5cccn5)cc4)cc3[nH]2)c1 [Compound 54] | 0.1 to 1 µM | 0.1 to 1 µM
9 | C[C@@H]1CN(c2cccc(-c3ccc4nc(CNC(=O)c5ccn(C(C)(C)C)c5)[nH]c4n3)c2)C[C@H](C)O1 [Compound 19] | 0.1 to 1 µM | 0.1 to 1 µM
10 | CC(C)S(=O)(=O)n1ccc(C(=O)NCc2nc3ccc(-c4ccc5ccn(C)c(=O)c5c4)cc3[nH]2)c1 [Compound 24] | 0.1 to 1 µM | 0.1 to 1 µM
11 | CS(=O)(=O)n1ccc(C(=O)NCc2cc3nc(-c4ccc5c(c4)CCO5)ccc3cn2)c1 [Compound 67] | 0.1 to 1 µM | 0.1 to 1 µM
12 | COc1ncc(-c2ccc3nc(CNC(=O)c4ccn(C(C)(C)C)c4)[nH]c3c2)cc1Cl [Compound 60] | 0.01 to 0.1 µM | 0.1 to 1 µM
13 | Cn1ccc2cc(-c3ccc4nc(CNC(=O)c5ccn(C(C)(C)C)c5)[nH]c4c3)ccc21 [Compound 32] | 0.01 to 0.1 µM | 0.01 to 0.1 µM
14 | C[C@@H]1CN(c2cccc(-c3ccc4nc(CNC(=O)c5ccn(S(C)(=O)=O)c5)[nH]c4n3)c2)C[C@H](C)O1 [Compound 13] | 0.01 to 0.1 µM | 0.01 to 0.1 µM

Further lines, results first:

Row | IC50 (BRM) | IC50 (BRG-1) | Structure (SMILES)
15 | 0.01 to 0.1 µM | 0.1 to 1 µM | CN1CCOc2ccc(-c3ccc4cnc(CNC(=O)c5ccn(S(C)(=O)=O)c5)cc4n3)cc21 [Compound 69]
16 | 0.01 to 0.1 µM | 0.01 to 0.1 µM | COc1ccc2cc(-c3ccc4nc(CNC(=O)c5ccn(C(C)(C)C)c5)[nH]c4c3)ccc2c1 [Compound 44]
17 | 0.01 to 0.1 µM | 0.1 to 1 µM | COC[C@H](NC(=O)c1ccn(S(C)(=O)=O)c1)c1cc2nc(-c3cccc(N4C[C@@H](C)O[C@@H](C)C4)n3)ccc2cn1 [Compound 82]
18 | 0.01 to 0.1 µM | 0.1 to 1 µM | CS(=O)(=O)n1ccc(C(=O)NCc2cc3nc(-c4cncc(C5CC5)n4)ccc3cn2)c1 [Compound 80, N-[[2-(6-cyclopropylpyrazin-2-yl)-1,6-naphthyridin-7-yl]methyl]-1-methylsulfonyl-pyrrole-3-carboxamide]
19 | 0.01 to 0.1 µM | 0.1 to 1 µM | CC(C)(C)n1ccc(C(=O)NCc2nc3ccc(-c4ccc5c(c4)OCC5)cc3[nH]2)c1 [Compound 45]
20 | 0.01 to 0.1 µM | 0.01 to 0.1 µM | CC(C)(C)n1ccc(C(=O)NCc2nc3ccc(-c4ccc5cnccc5c4)cc3[nH]2)c1 [Compound 41]
21 | 0.01 to 0.1 µM | 0.01 to 0.1 µM | Cc1ccc2ccc(-c3ccc4nc(CNC(=O)c5ccn(C(C)(C)C)c5)[nH]c4c3)cc2n1 [Compound 52]
22 | 0.01 to 0.1 µM | 0.01 to 0.1 µM | Cn1ncc2c(-c3ccc4nc(CNC(=O)c5ccn(C(C)(C)C)c5)[nH]c4c3)cccc21 [Compound 48]
23 | 0.01 to 0.1 µM | 0.01 to 0.1 µM | CS(=O)(=O)n1ccc(C(=O)NCc2nc3ccc(-c4cccc(-c5ccncc5)c4)nc3[nH]2)c1 [Compound 2]
24 | 0.01 to 0.1 µM | 0.01 to 0.1 µM | Cn1cc2ccc(-c3ccc4nc(CNC(=O)c5ccn(C(C)(C)C)c5)[nH]c4c3)cc2n1 [Compound 33]
25 | 0.01 to 0.1 µM | 0.01 to 0.1 µM | Cc1ccc2cc(-c3ccc4nc(CNC(=O)c5ccn(C(C)(C)C)c5)[nH]c4c3)ccc2n1 [Compound 57]
26 | 0.01 to 0.1 µM | 0.1 to 1 µM | CC(C)(C)n1ccc(C(=O)NCc2nc3ccc(-c4ccc5c(c4)OCO5)cc3[nH]2)c1 [Compound 58]
27 | 0.01 to 0.1 µM | 0.1 to 1 µM | Cc1nc2cc(-c3ccc4nc(CNC(=O)c5ccn(C(C)(C)C)c5)[nH]c4c3)ccc2s1 [Compound 50]
28 | 0.01 to 0.1 µM | 0.01 to 0.1 µM | C[C@@H]1CN(c2cccc(-c3ccc4cnc(CNC(=O)c5ccn(C(C)(C)C#N)n5)cc4n3)n2)C[C@H](C)O1 [Compound 79]
29 | 0.01 to 0.1 µM | 0.01 to 0.1 µM | CS(=O)(=O)n1ccc(C(=O)NCc2nc3ccc(-c4ccc(N5CCC5)cc4)nc3[nH]2)c1 [Compound 9]
